According to US20220324911A1, “THERAPEUTIC PEPTIDES” (COHBAR, INC., priority 2019, published 2022):
Non-standard residues stand in square brackets, D forms with d. No end group written: not given here.

Legend:
3T3-L1 adipocytes = assay: Free Fatty Acid Levels in 3T3-L1 Adipocytes; type: cell-based, mouse; details: for Free Fatty Acid Levels Expressed as a Percent Isoproterenol Control, Percent of Control Value: peptides at 25 μM, 20-22 hours then isoproterenol (1 nM) 3 hours
Procedure: Following 12-15 days' differentiation, test peptides were added to a final concentration of 25 μM and incubated for 20-22 hours in Adipocyte Maintenance Medium. After 20-22 hours, isoproterenol (1 nM) was added to all wells except untreated controls and test peptides were replenished. Cells were incubated for a further 3 hours in Assay Buffer (Zen-Bio). Free fatty acid concentrations in the media were determined using a Free Fatty Acid Assay Kit (Zen-Bio) according to the manufacturer's instructions using a plate reader (540 nm). Absorbance values were corrected for untreated background and expressed relative to isoproterenol treated cells. Treatment with isoproterenol (1 nM) alone was used as the free fatty acid level stimulatory control. The relative standard deviation of the isoproterenol control was <10%. […] Free fatty acid levels for insulin (100 nM) treatment were <5% of the isoproterenol control value.

MDA-MB-231 cells [1] = assay: Caspase 3/7 Activity in MDA-MB-231 Cells (Caspase-Glo 3/7); type: cell-based, human; details: peptides at 10 μM, 18 hours, relative to DMSO control
Procedure: The effect of the peptides on cell death/survival can be assessed using a caspase-3 assay. Peptides were dissolved with DMSO at 10 mM stock. […] Staurosporine (Selleckchem) was dissolved with DMSO at 1 mM stock. Caspase-Glo 3/7 Assay Reagent was purchased from Promega (Madison, Wis.). MDA-MB-231 human breast cancer cell line was purchased from American Type Culture Collection (Manassas, Va.). MDA-MB-231 cells were grown in DMEM Medium supplemented with 10% FBS. 100 μg/ml penicillin and 100 μg/ml streptomycin were added to the culture medium. Cultures were maintained at 37° C. in a humidified atmosphere of 5% C02 and 95% air. MDA-MB-231 cells were incubated with test peptides in duplicate at 10 μM at 37° C. in a humidified atmosphere of 5% C02 and 95% air for 18 hours. 25 μl of Caspase-Glo 3/7 Assay Reagent was added to each well and incubated at 37° C., 5% C02 for 1 hour. Luminescence for each sample well on the plate was measured by Envision 2104 Multilabel Reader (PerkinElmer, Santa Clara, Calif.). Activity was calculated relative to DMSO control.

MCF-7 cells = details: human, 72 h, 10 µM
Procedure: Peptides and reference compound staurosporine (Selleckchem) were dissolved with DMSO at 10 mM stock. CellTiter 96® AQueous One Solution Reagent (MTS assay reagent) was purchased from Promega (Madison, Wis.). MCF-7 human breast cancer cell line was purchased from American Type Culture Collection (Manassas, Va.). MCF-7 cells were grown in EMEM Medium supplemented with 10% FBS and 0.01 mg/ml human recombinant insulin. 100 μg/ml penicillin and 100 μg/ml streptomycin were added to the culture medium. Cells were incubated with test peptides at 10 μM at 37° C. in a humidified atmosphere of 5% C02 and 95% air for 72 hours. 5 μl of CellTiter 96® AQueous One Solution Reagent (MTS assay reagent) was added to each well and incubated at 37° C., 5% C02 for 5 hours. Absorbance at 492 nm was recorded by Envision 2104 Multilabel Reader. Treatment with DMSO alone was used as the cell viability activity control.

MDA-MB-231 cells [2] = assay: MTS Assay in MDA-MB-231 Cells (cell viability); type: cell-based; details: human, 72 h
Procedure: Test compounds and reference compound staurosporine (Selleckchem) were all dissolved with DMSO at 10 mM stock. […] Activity was calculated relative to DMSO control. […] Cell viability was 3% of the DMSO control value for Staurosporine (10 uM).

Substance | Free Fatty Acid Levels Expressed as a Percent Isoproterenol Control, Percent of Control Value (3T3-L1 adipocytes) | also measured
3 (SLLIQCQSGHLR) [compound 3] | 136% | –
4 (LLIQCQSGHLR) [compound 4] | 141% | –
5 ([dA]LIQCQSGHLR) [compound 5] | 159% | –
8 (TCWLIVDIGLLIVSSVF) [compound 8] | 129% | –
9 ([dA]TCWLIVDIGLLIVSSVF) [compound 9] | 125% | –
10 ([dA]TCWLIVDIGLLIVSS[dA]F) [compound 10] | 138% | –
13 (TGWARGLISTGRV) [compound 13] | 87% | –
14 (TGWARGLISTGR; not fully specified) [compound 14] | 102% | –
15 (TGW[dA]RGLISTGR) [compound 15] | 102% | –
18 (QTVPNKPTGPKLPNLH) [compound 18] | 109% | –
19 (QTVPNKPT[dA]PKLPNLH) [compound 19] | 89% | –
20 (QTVPNKPT[dA]PKLPN[dA]) [compound 20] | 108% | –
MQTVPNKPTGPKLPNLH [compound 17] | 112% | Caspase 3/7 Activity, Percent of Control Activity (MDA-MB-231 cells [1]): 65%; MTS Assay cell viability, Percent of Control Activity (MCF-7 cells): 68%; MTS Assay cell viability, Percent of Control Activity (MDA-MB-231 cells [2]): 85%
MSLLIQCQSGHLR [compound 2] | 162% | Caspase 3/7 Activity, Percent of Control Activity (MDA-MB-231 cells [1]): 92%; MTS Assay cell viability, Percent of Control Activity (MCF-7 cells): 59%; MTS Assay cell viability, Percent of Control Activity (MDA-MB-231 cells [2]): 90%
MTCWLIVDIGLLIVSSVF [compound 7] | 160% | Caspase 3/7 Activity, Percent of Control Activity (MDA-MB-231 cells [1]): 56%; MTS Assay cell viability, Percent of Control Activity (MCF-7 cells): 52%; MTS Assay cell viability, Percent of Control Activity (MDA-MB-231 cells [2]): 88%
MTGWARGLISTGRV [compound 12] | 107% | Caspase 3/7 Activity, Percent of Control Activity (MDA-MB-231 cells [1]): 73%; MTS Assay cell viability, Percent of Control Activity (MCF-7 cells): 62%; MTS Assay cell viability, Percent of Control Activity (MDA-MB-231 cells [2]): 89%
insulin [reference compound] | – | Free fatty acid levels, % of the isoproterenol control value (3T3-L1 adipocytes; insulin 100 nM): < 5%
